The test system of assay [1] is Ad2 variant pre-mRNAs spliced in HeLa S3 nuclear extracts. Briefly: In vitro splicing assay (IVS), RT-qPCR of spliced product. The format is biochemical. The conditions noted are these: for IC50: geometric mean. In short, it runs like this:
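Ad2 variant pre-mRNA (2 ng) with FTZΔi control RNA in HeLa S3 nuclear extract (8 μg) was pre-incubated with compound or DMSO for 15 min at 30 °C. Splicing ran 90 min at 30 °C after adding 0.5 mM ATP, creatine phosphate and MgCl2. Spliced product was quantified by TaqMan RT-qPCR, normalized to DMSO, and curve-fitted.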

The test system of assay [2] is Panc 05.04 cells (SF3b K700E mutant). Nature of the assay: Cell proliferation and viability, CellTiter-Glo, 72 hours. The format is cell-based. The conditions noted are these: for GI50: geometric mean. In short, it runs like this: (§1)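 Cells grown in RPMI-1640 with 10% FBS (Panc 05.04 with added insulin, 15% FBS total) were exposed to an 11-point half-log dilution, typically 10 μM–100 pM, at 0.1% DMSO for 72 h at 37 °C. ATP content was read by CellTiter-Glo luminescence. Percent inhibition was set against a time-zero plate and DMSO vehicle wells, on a −100% (cidal) to 100% (uninhibited growth) scale.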

In assay [3] the test system is NCI-H1568 cells (high MCL1). Described as above. The format is cell-based. To be noted: for GI50: geometric mean. In short, it runs like this:
as §1

The next assay addresses T1, SF3b complexes (Homo sapiens, UniProt O75533+Q7RTV0).
T1 construct: endogenous in cells; host or cells: Nuclear extracts; A HeLa S3 extract preparation is described for the in vitro splicing assay
Briefly: Scintillation proximity assay (SPA) with [3H]-labelled pladienolide probe. It counts as binding. To be noted: SF3B1 (WT); geometric mean; read-out: SPA-ATS GMean IC50 (nM) SF3B1 (WT). In short, it runs like this: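 SF3b complexes captured from nuclear extracts on anti-SF3B1 antibody SPA beads; test compounds pre-incubated 30 min before 2.5 nM [3H]-pladienolide probe added, then 30 min incubation. Bound probe read by scintillation; values from non-linear regression of concentration–response curves.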

The mark [4] stands for this setting: Ad2.1 pre-mRNA substrate, read-out: qPCR-IVS-ATS GMean IC50 (nM) Ad2.1.
Setting [5] is: Ad2.2 pre-mRNA substrate, read-out: qPCR-IVS-ATS GMean IC50 (nM) Ad2.2.
The mark [6] stands for this setting: PANC0504.1 cells, 72 h, −100% cidal, 0% static, 100% maximal growth.
The mark [7] stands for this setting: Panc 05.04, read-out: CTGlo-ATS GMean GI50 (nM) 72 h PANC0504.1, PANC0504.1 cells, 72 h.
Setting [8] is: NCI-H1568, read-out: CTGlo-ATS GMean GI50 (nM) 72 h NCIH1568.1, NCIH1568.1 cells, 72 h.
The mark [9] stands for this setting: NCIH1568.1 cells, 72 h, −100% cidal, 0% static, 100% maximal growth.
Setting [10] is: Panc 05.04, 72 h, read-out: CTGlo-ATS GMean GI50 (nM) 72 h PANC0504.1, PANC0504.1 cells, 72 h.
The mark [11] stands for this setting: NCI-H1568, 72 h, read-out: CTGlo-ATS GMean GI50 (nM) 72 h NCIH1568.1, NCIH1568.1 cells, 72 h.

Data on seven compounds can be found in patent publication US11679107B2 (Eisai R&D Management Co., Ltd., priority 2018, dated 2023).

Read-outs that look alike come from different tables or passages of the source.

As for `C/C(=C\c1cc(C)cc(N2CCOCC2)c1)[C@H]1OC(=O)C[C@H](O)CC[C@H](C)[C@@H](OC(=O)N2CCN(C)CC2)/C=C/[C@@H]1C` [Compound 18], the IC50 in assay [1] (setting [4]) amounted to 77.5 nM; in assay [1] (setting [5]), 34.3 nM; on SF3b complexes, 16.7 nM. In assay [2] (setting [6]), the “CTGlo-ATS Mean MinResponse % 72 h PANC0504.1” value is recorded as −83.683%. Further, the figures for the GI50 in assay [2] (setting [7]) and in assay [3] (setting [8]) were 19.9 nM and 26.1 nM, respectively. Besides, in assay [3] (setting [9]), the “CTGlo-ATS Mean MinResponse % 72 h NCIH1568.1” value is −60.339%.

In the case of `C/C(=C\c1cc(F)cc(N2CCS(=O)(=O)CC2)c1)[C@H]1OC(=O)C[C@H](O)CC[C@H](C)[C@@H](OC(=O)N(C)C)/C=C/[C@@H]1C` [Compound 51], the IC50 is greater than 25000 nM in assay [1] (setting [4]), 88.1 nM in assay [1] (setting [5]) and 19.7 nM on SF3b complexes. Besides, the “CTGlo-ATS Mean MinResponse % 72 h PANC0504.1” value in assay [2] (setting [6]) was −78.388%. Further, the GI50 was determined as 80.9 nM in assay [2] (setting [7]) and 112 nM in assay [3] (setting [8]). The “CTGlo-ATS Mean MinResponse % 72 h NCIH1568.1” value in assay [3] (setting [9]) is given as −31.962%.

On to `C/C(=C\c1cncc(S(=O)(=O)N2CCCC2)c1)[C@H]1OC(=O)C[C@H](O)CC[C@H](C)[C@@H](OC(=O)N2CCN(C)CC2)/C=C/[C@@H]1C` [Compound 205, [(2S,3S,4E,6R,7S,10R)-10-hydroxy-3,7-dimethyl-12-oxo-2-[(E)-1-(5-pyrrolidin-1-ylsulfonylpyridin-3-yl)prop-1-en-2-yl]-1-oxacyclododec-4-en-6-yl] 4-methylpiperazine-1-carboxylate], for which the IC50 in assay [1] (setting [4]) is greater than 25000 nM; in assay [1] (setting [5]), 108 nM; at SF3b complexes, 16.2 nM. Moreover, the “Ratio Ad2.1/2.2” value in assay [1] (ratio of IVS IC50 Ad2.1 to Ad2.2) turned out to be 232.132. Also, the “CTGlo-ATS Mean MinResponse % 72 h PANC0504.1” value in assay [2] (72 h, PANC0504.1, -100% = cidal, 0% = static, 100% = uninhibited growth) is recorded as −91.576%. Moreover, the concentration for 50% growth inhibition (GI50) in assay [2] (Panc 05.04, read-out: CTGlo-ATS GMean GI50 (nM) 72 h PANC0504.1, 72 h, PANC0504.1) worked out at 70.8 nM; in assay [3] (NCI-H1568, read-out: CTGlo-ATS GMean GI50 (nM) 72 h NCIH1568.1, 72 h, NCIH1568.1) it was 85.9 nM. In assay [3] (72 h, NCIH1568.1, -100% = cidal, 0% = static, 100% = uninhibited growth), the “CTGlo-ATS Mean MinResponse % 72 h NCIH1568.1” value is reported as −28.455%.

As for `C/C(=C\c1cccc(N2CCCS2(=O)=O)c1)[C@H]1OC(=O)C[C@H](O)CC[C@H](C)[C@@H](OC(=O)N2CCN(C)CC2)/C=C/[C@@H]1C` [Compound 49], the values for the IC50 (in assay [1] (setting [4]); in assay [1] (setting [5]); at SF3b complexes) were 16300 nM, 28.3 nM and 3.04 nM, respectively. Moreover, the “CTGlo-ATS Mean MinResponse % 72 h PANC0504.1” value in assay [2] (setting [6]) is given as −93.022%. Besides, the GI50 in assay [2] (setting [10]) was 9.02 nM; in assay [3] (setting [11]), 11.7 nM. The “CTGlo-ATS Mean MinResponse % 72 h NCIH1568.1” value in assay [3] (setting [9]) is listed as −35.275%.

With `C/C(=C\c1cccc(N(C)C2COC2)c1)[C@H]1OC(=O)C[C@H](O)CC[C@H](C)[C@@H](OC(=O)N2CCN(C)CC2)/C=C/[C@@H]1C` [Compound 171], the IC50 in assay [1] (setting [4]) worked out at 18800 nM; in assay [1] (setting [5]), 42.6 nM; at SF3b complexes it was 1.51 nM. Further, the “CTGlo-ATS Mean MinResponse % 72 h PANC0504.1” value in assay [2] (setting [6]) was −92.998%. Moreover, the GI50 in assay [2] (setting [10]) was determined as 23.6 nM; in assay [3] (setting [11]), 19.6 nM. For the same compound, the “CTGlo-ATS Mean MinResponse % 72 h NCIH1568.1” value in assay [3] (setting [9]) is on record as −50.083%.

As to `C/C(=C\c1cc(F)cc(N2CCC[C@@H]2C)c1)[C@H]1OC(=O)C[C@H](O)CC[C@H](C)[C@@H](OC(=O)N2CCN(C)CC2)/C=C/[C@@H]1C` [Compound 43], the IC50 is greater than 25000 nM in assay [1] (setting [4]), 139 nM in assay [1] (setting [5]) and 12 nM on SF3b complexes. For the same compound, the “CTGlo-ATS Mean MinResponse % 72 h PANC0504.1” value in assay [2] (setting [6]) is listed as −88.777%. The GI50 in assay [2] (setting [10]) came to 57.5 nM; in assay [3] (setting [11]) it was 89.1 nM. In addition, in assay [3] (setting [9]), the “CTGlo-ATS Mean MinResponse % 72 h NCIH1568.1” value is recorded as −36.254%.

Turning to `C/C(=C\c1ccc2cnn(C)c2c1)[C@H]1OC(=O)C[C@H](O)CC[C@H](C)[C@@H](OC(=O)N2CCN(C)CC2)/C=C/[C@@H]1C` [Compound 55], the IC50 in assay [1] (setting [4]) is 19900 nM; in assay [1] (setting [5]) it was 45.3 nM; at SF3b complexes, 2.37 nM. In assay [2] (setting [6]), the “CTGlo-ATS Mean MinResponse % 72 h PANC0504.1” value was −85.478%. In addition, the concentration for 50% growth inhibition (GI50) in assay [2] (setting [7]) turned out to be 17.2 nM; in assay [3] (setting [8]) it was 21.2 nM. For the same compound, in assay [3] (setting [9]), the “CTGlo-ATS Mean MinResponse % 72 h NCIH1568.1” value is on record as −57.557%.
